As usually defined, the inhibition in vivo is the percentage by which the read-out fell short of the control. Read a high inhibition in vivo as strong suppression. As usually defined, the Inhibition is the change of the read-out against control, counted positive when it falls.

Calls of active or inactive are those of the source. The rule behind the calls is not given here.

The subject of assay [1] is Mus musculus. The experiment in a line: inhibition of acute TPA-induced ear swelling in mice on oral administration of 0.1 nmol/kg. Type of assay: functional.
In assay [2] the test system is Mus musculus. Kind of assay: Percent inhibition of acute TPA-induced ear swelling in mice upon topical application at 2x 100 ug. Type of assay: functional.
Assay [3] deals with Mus musculus. The experiment in a line: inhibition of acute TPA-induced ear swelling in mice upon topical application of 2x 100 ug. Type of assay: functional.
A short description of assay [4]: Inhibitory dose was determined. Type of assay: functional. Conditions: read-out: ID50 (the source's name).
Assay [5] has as its system Mus musculus. Kind of assay: inhibition of acute TPA-induced ear swelling in mice on oral administration of 0.1 nmol/kg; not active. Type of assay: functional, organism-based.

In turn, `Cc1cc(C)nc(NC(=O)/C=C/c2cn(Cc3ccc(F)cc3)c3ccccc23)c1` displayed an inhibition in vivo at 0.0001 µmol/kg in the assay on Mus musculus [1] of 80%. The molecule also returned an Inhibition with Mus musculus [2] of 66%.

For `Cc1cc(C)nc(NC(=O)CCc2c[nH]c3ccccc23)c1`, the inhibition in vivo at 0.0001 µmol/kg with Mus musculus [1] came to 72%. Moreover, the Inhibition in the assay on Mus musculus [2] was determined as 66%.

Regarding `O=C(CCc1cn(Cc2ccccc2)c2ccccc12)NCc1cccnc1`, the inhibition in vivo at 0.0001 µmol/kg in the assay with Mus musculus [1] came to 70%.

For `O=C(CCc1cn(CCN2CCOCC2)c2ccccc12)Nc1ccncc1`, the inhibition in vivo at 0.0001 µmol/kg with Mus musculus [1] stood at 63%.

Molecule `O=C(CCc1c[nH]c2ccccc12)Nc1ccncc1` gave an inhibition in vivo at 0.0001 µmol/kg with Mus musculus [1] of 77%. Also, the Inhibition in the assay with Mus musculus [3] is 38%.

In the assay on Mus musculus [1], `O=C(CCc1cn(Cc2ccc(Cl)cc2)c2ccc(Cl)cc12)NCc1cccnc1` gave an inhibition in vivo at 0.0001 µmol/kg of 84%. For the same molecule, the Inhibition in the assay on Mus musculus [2] came out at 94%.

`Cc1cc(C)nc(NC(=O)CCc2cn(Cc3ccc(Cl)cc3)c3ccccc23)c1` registered an inhibition in vivo at 0.0001 µmol/kg in the assay on Mus musculus [1] of 64%.

For the molecule `C[C@@H]1C[C@H]2[C@@H]3CCC4=CC(=O)C=C[C@]4(C)[C@@]3(F)[C@@H](O)C[C@]2(C)[C@@]1(O)C(=O)CO` [DEXAMETHASONE], the inhibition in vivo at 0.0001 µmol/kg in the assay on Mus musculus [1] was determined as 82%. For the same molecule, the Inhibition in the assay on Mus musculus [2] is given as 96%.

In the assay with Mus musculus [1], `O=C(CCc1cn(Cc2ccc(Cl)cc2)c2ccccc12)NCc1cccnc1` registered an inhibition in vivo at 0.0001 µmol/kg of 92%. In the assay on Mus musculus [2], this molecule gave an Inhibition of 71%. In assay [4], the ED50 was found to be 24 µmol/kg.

On to `CC(C)Cc1ccc(C(C)C(=O)O)cc1` (configuration not stated) [IBUPROFEN], for which the inhibition in vivo at 0.0001 µmol/kg in the assay on Mus musculus [1] was found to be 35%. Also, the Inhibition with Mus musculus [2] came out at 59%.

With `O=C(CCc1cn(Cc2ccc(Cl)cc2)c2ccccc12)Nc1ccncc1`, in the assay on Mus musculus [1], the inhibition in vivo at 0.0001 µmol/kg turned out to be 72%.

As to `O=C(CCn1ccc2ccccc21)Nc1ccncc1`, the inhibition in vivo at 0.0001 µmol/kg in the assay with Mus musculus [1] came out at 77%.

As for `O=C(CCc1cn(Cc2ccc(Cl)cc2)c2ccc(Cl)cc12)Nc1ccncc1`, the inhibition in vivo at 0.0001 µmol/kg in the assay with Mus musculus [1] came to 64%.

For the molecule `O=C(CCc1c[nH]c2ccccc12)NCc1cccnc1`, the inhibition result with Mus musculus [5] is “inactive”.

In turn, `O=C(CCc1cn(Cc2ccccc2)c2ccccc12)Nc1ccncc1` came in with an inhibition in vivo at 0.0001 µmol/kg with Mus musculus [1] of 84%. The same molecule returned an Inhibition with Mus musculus [2] of 90%.

The molecule `Cc1cc(C)nc(NC(=O)CCc2cn(Cc3ccccc3)c3ccccc23)c1` registered an inhibition in vivo at 0.0001 µmol/kg in the assay with Mus musculus [1] of 61%.

In turn, `Cc1cc(C)nc(NC(=O)CCc2cn(Cc3ccc(Cl)cc3)c3ccc(Cl)cc23)c1` displayed an inhibition in vivo at 0.0001 µmol/kg in the assay on Mus musculus [1] of 83%. In the assay with Mus musculus [2], this molecule showed an Inhibition of 89%.
